# Results from US11414425B2 (priority 2018, dated 2022).
# Where two headings read alike, the source gives them in different places.
# Experiments:
# [1] = biological target: α5β3γ2 GABAA receptors (Homo sapiens, UniProt P18507+P31644); experiment: [3H]Ro15-1788 binding, membranes of Ltk cells stably expressing α5β3γ2 GABAA receptors
# [2] = biological target: T1, GABAA receptors (α5β2γ2) (Homo sapiens, UniProt P18507+P31644); experiment: Positive allosteric modulator activity: potentiation of EC20 GABA current in oocytes; assay type: cell-based; details: read-out: GABA α5 Functional Data (potentiation of EC20 GABA)
# T1 construct: expressed in transfected cells
# Experimental: On day 1, 1 ng/32 nL of GABAA α5β2γ2 cDNA was injected into one oocyte. Test starts on day 2. The cDNA injected to the oocytes was a mix of alpha, beta and gamma, their ratio is 1:1:10 (by weight) and the total weight of the mixed 3 subunits to be injected in one oocyte was 1 ng in 32 nl volume. The injected oocytes can also be tested on day 3. In such case, the cDNA amount injected to the oocytes should be reduced by 20%.
# 1). 8 oocytes were placed in 8 chambers of OpusXpress and superfused with Modified Barth's Saline (MBS) at 3 mL/min. Glass electrodes back-filled with 3M KCl (0.5-3 megaohms) were used.
# 1). New oocytes were used to run new test.
# 3). […] Oocytes were washed with MBS for 5-10 min.
# 4). […] Itest was divided by IGABA to obtain potentiation (%).
# Test Compounds at Multiple Doses • 1). Repeat the above steps 1), 2) and 3) in the control test. • 2). […] Divide Itest by IGABA to obtain potentiation (%). • 3). Discard all tested oocytes, new oocytes were used and the above steps 1) and 2) were repeated to test second concentration of the same compound. Each oocyte was used for only one concentration test for a single test compound. The steps were repeated for other test compounds.
# [3] = ranges, inhibition of [3H]Ro15-1788 binding
# Sequence of α5β3γ2 GABAA receptors (P31644 32-462): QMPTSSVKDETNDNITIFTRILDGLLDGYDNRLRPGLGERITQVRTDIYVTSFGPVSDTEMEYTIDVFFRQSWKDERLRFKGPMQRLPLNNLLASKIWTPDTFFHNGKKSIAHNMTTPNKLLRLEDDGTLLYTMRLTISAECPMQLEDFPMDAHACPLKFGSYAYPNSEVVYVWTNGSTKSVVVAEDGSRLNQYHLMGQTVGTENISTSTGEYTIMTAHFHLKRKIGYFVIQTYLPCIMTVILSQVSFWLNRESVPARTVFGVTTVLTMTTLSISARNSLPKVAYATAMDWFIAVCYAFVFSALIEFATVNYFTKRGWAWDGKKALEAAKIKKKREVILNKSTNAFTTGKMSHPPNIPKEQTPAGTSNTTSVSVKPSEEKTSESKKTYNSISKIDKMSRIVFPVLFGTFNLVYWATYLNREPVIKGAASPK
# Sequence of α5β3γ2 GABAA receptors (P28472 26-473 partner): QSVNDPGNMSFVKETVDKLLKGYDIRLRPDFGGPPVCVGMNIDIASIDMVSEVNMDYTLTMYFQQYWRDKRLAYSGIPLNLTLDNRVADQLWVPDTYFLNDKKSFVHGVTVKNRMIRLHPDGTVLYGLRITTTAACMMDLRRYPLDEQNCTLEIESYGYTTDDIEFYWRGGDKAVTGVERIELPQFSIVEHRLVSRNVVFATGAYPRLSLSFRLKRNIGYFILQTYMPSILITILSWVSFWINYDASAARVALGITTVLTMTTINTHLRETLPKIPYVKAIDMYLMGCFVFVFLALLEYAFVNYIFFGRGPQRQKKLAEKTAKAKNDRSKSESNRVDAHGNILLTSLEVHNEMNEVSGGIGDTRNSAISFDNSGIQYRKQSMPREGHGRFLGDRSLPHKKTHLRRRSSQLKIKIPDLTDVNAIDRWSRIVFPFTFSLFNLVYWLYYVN
# Sequence of α5β3γ2 GABAA receptors (P18507 40-475): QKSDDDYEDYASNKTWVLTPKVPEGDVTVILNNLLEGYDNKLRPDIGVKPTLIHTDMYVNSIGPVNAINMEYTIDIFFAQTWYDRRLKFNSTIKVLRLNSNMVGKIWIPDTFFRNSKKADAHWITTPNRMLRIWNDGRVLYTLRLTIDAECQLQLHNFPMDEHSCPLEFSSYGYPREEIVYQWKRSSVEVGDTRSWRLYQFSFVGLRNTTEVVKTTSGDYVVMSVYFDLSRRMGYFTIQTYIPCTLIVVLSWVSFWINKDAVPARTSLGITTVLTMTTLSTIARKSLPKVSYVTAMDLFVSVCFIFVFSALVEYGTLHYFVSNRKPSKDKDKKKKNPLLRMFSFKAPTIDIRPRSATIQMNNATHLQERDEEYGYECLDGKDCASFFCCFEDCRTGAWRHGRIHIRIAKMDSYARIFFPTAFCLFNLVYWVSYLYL
# T1 sequence (P31644 32-462): as the sequence (P31644 32-462) above
# T1 sequence (P47870 25-512, further chain): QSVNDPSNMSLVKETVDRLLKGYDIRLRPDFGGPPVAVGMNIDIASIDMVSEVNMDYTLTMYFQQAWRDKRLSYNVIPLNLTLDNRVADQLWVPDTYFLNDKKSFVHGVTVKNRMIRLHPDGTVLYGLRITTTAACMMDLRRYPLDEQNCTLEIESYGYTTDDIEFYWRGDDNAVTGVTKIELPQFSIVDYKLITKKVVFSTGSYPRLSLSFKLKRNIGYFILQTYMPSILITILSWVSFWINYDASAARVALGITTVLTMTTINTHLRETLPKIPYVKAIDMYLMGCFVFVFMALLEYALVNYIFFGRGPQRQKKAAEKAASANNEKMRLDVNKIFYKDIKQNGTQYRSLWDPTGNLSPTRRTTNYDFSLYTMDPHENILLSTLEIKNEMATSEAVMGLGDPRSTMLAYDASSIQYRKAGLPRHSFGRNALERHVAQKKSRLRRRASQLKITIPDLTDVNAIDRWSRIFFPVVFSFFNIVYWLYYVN
# T1 sequence (P18507 40-475): as the sequence (P18507 40-475) above
structure (smiles),measurement,setting,value
Cc1noc(-c2ncn3c2Cc2c(Cc4ccc(F)cc4)nnn2-c2cc(OC(F)F)ccc2-3)n1 [Compound 492],Ki,[1]; [3],< 100 nM
same,activation at 0.1 µM,"[2]; @ 100 nM, ranges",20 to 50%
Cc1nc(-c2ncn3c2Cc2c(Cc4ccc(F)cc4)nnn2-c2cc(C(F)(F)F)ccc2-3)no1 [Compound 493],Ki,[1]; [3],< 100 nM
same,activation at 0.1 µM,"[2]; @ 100 nM, ranges",5 to 20%
CC(C)c1noc(-c2ncn3c2Cc2c(Cc4ccc(F)cc4)nnn2-c2cc(OC(F)F)ccc2-3)n1 [Compound 494],Ki,[1]; [3],< 100 nM
same,activation at 0.1 µM,"[2]; @ 100 nM, ranges",20 to 50%
COc1ccc(C#Cc2ncn3c2Cc2cnnn2-c2cc(OC(F)F)ccc2-3)cc1 [Compound 498],Ki,[1]; [3],< 100 nM
same,activation at 0.1 µM,"[2]; @ 100 nM, ranges",5 to 20%
COc1ccc(C#Cc2ncn3c2Cc2cnnn2-c2cc(C(F)(F)F)ccc2-3)cc1 [Compound 499],Ki,[1]; [3],< 100 nM
same,activation at 0.1 µM,"[2]; @ 100 nM, ranges",20 to 50%
Fc1ccc(C#Cc2ncn3c2Cc2cnnn2-c2cc(OC(F)F)ccc2-3)cc1 [Compound 500],Ki,[1]; [3],< 100 nM
same,activation at 0.1 µM,"[2]; @ 100 nM, ranges",5 to 20%
Fc1ccc(C#Cc2ncn3c2Cc2cnnn2-c2cc(C(F)(F)F)ccc2-3)cc1 [Compound 501],Ki,[1]; [3],< 100 nM
same,activation at 0.1 µM,"[2]; @ 100 nM, ranges",20 to 50%
FC(F)(F)c1ccc2c(c1)-n1nncc1Cc1c(C#CC3(c4ccccc4)CC3)ncn1-2 [Compound 503],Ki,[1]; [3],< 100 nM
same,activation at 0.1 µM,"[2]; @ 100 nM, ranges",5 to 20%
FC(F)Oc1ccc2c(c1)-n1nncc1Cc1c(C#CC3(c4ccccc4)CC3)ncn1-2 [Compound 504],Ki,[1]; [3],< 100 nM
same,activation at 0.1 µM,"[2]; @ 100 nM, ranges",5 to 20%
Brc1ccc2c(c1)-n1nncc1Cc1c(C3=N[C@H](c4ccccc4)CO3)ncn1-2 [Compound 505],Ki,[1]; [3],< 100 nM
same,activation at 0.1 µM,"[2]; @ 100 nM, ranges",20 to 50%
FC(F)(F)Oc1ccc2c(c1)-n1nncc1Cc1c(C3=N[C@H](c4ccccc4)CO3)ncn1-2 [Compound 507],Ki,[1]; [3],< 100 nM
same,activation at 0.1 µM,"[2]; @ 100 nM, ranges",5 to 20%
Cc1nnc(-c2ncn3c2Cc2cnnn2-c2cc(Cl)ccc2-3)o1 [Compound 508],Ki,[1]; [3],< 100 nM
same,activation at 0.1 µM,"[2]; @ 100 nM, ranges",5 to 20%
Cc1nnc(-c2ncn3c2Cc2cnnn2-c2cc(Cl)ccc2-3)s1 [Compound 509],Ki,[1],< 100 nM
same,activation at 0.1 µM,[2],20 to 50%
COc1ccc2c(c1)-n1nncc1Cc1c(C3=NC[C@H](c4ccccc4)O3)ncn1-2 [Compound 511],Ki,[1]; [3],< 100 nM
same,activation at 0.1 µM,"[2]; @ 100 nM, ranges",5 to 20%
COc1ccc2c(c1)-n1nncc1Cc1c(C3=NC[C@@H](c4ccccc4)O3)ncn1-2 [Compound 512],Ki,[1]; [3],< 100 nM
same,activation at 0.1 µM,"[2]; @ 100 nM, ranges",5 to 20%
Clc1ccc2c(c1)-n1nncc1Cc1c(C3=NC[C@H](c4ccccc4)O3)ncn1-2 [Compound 513],Ki,[1]; [3],< 100 nM
same,activation at 0.1 µM,"[2]; @ 100 nM, ranges",20 to 50%
Clc1ccc2c(c1)-n1nncc1Cc1c(C3=NC[C@@H](c4ccccc4)O3)ncn1-2 [Compound 514],Ki,[1]; [3],< 100 nM
same,activation at 0.1 µM,"[2]; @ 100 nM, ranges",5 to 20%
Clc1cccc([C@@H]2COC(c3ncn4c3Cc3cnnn3-c3cc(Cl)ccc3-4)=N2)c1 [Compound 515],Ki,[1]; [3],< 100 nM
same,activation at 0.1 µM,"[2]; @ 100 nM, ranges",5 to 20%
COc1ccc2c(c1)-n1nncc1Cc1c(C3=N[C@H](c4cccc(Cl)c4)CO3)ncn1-2 [Compound 516],Ki,[1]; [3],< 100 nM
same,activation at 0.1 µM,"[2]; @ 100 nM, ranges",5 to 20%
COc1ccc2c(c1)-n1nncc1Cc1c(C3=N[C@H](c4ccc(Cl)cc4)CO3)ncn1-2 [Compound 517],Ki,[1]; [3],< 100 nM
same,activation at 0.1 µM,"[2]; @ 100 nM, ranges",20 to 50%
Clc1ccc([C@@H]2COC(c3ncn4c3Cc3cnnn3-c3cc(Cl)ccc3-4)=N2)cc1 [Compound 518],Ki,[1]; [3],< 100 nM
same,activation at 0.1 µM,"[2]; @ 100 nM, ranges",5 to 20%
COc1ccc2c(c1)-n1nncc1Cc1c(C3=N[C@H](c4ccc(F)cc4)CO3)ncn1-2 [Compound 519],Ki,[1]; [3],< 100 nM
same,activation at 0.1 µM,"[2]; @ 100 nM, ranges",20 to 50%
COc1ccc([C@@H]2COC(c3ncn4c3Cc3cnnn3-c3cc(OC)ccc3-4)=N2)cc1 [Compound 520],Ki,[1]; [3],< 100 nM
same,activation at 0.1 µM,"[2]; @ 100 nM, ranges",5 to 20%
COc1ccc([C@@H]2COC(c3ncn4c3Cc3cnnn3-c3cc(Cl)ccc3-4)=N2)cc1 [Compound 521],Ki,[1]; [3],< 100 nM
same,activation at 0.1 µM,"[2]; @ 100 nM, ranges",20 to 50%
Fc1ccc([C@@H]2COC(c3ncn4c3Cc3cnnn3-c3cc(Cl)ccc3-4)=N2)cc1 [Compound 522],Ki,[1]; [3],< 100 nM
same,activation at 0.1 µM,"[2]; @ 100 nM, ranges",5 to 20%
Clc1ccc2c(c1)-n1nncc1Cc1c(-c3cn(Cc4ccccc4)nn3)ncn1-2 [Compound 523],Ki,[1]; [3],< 100 nM
same,activation at 0.1 µM,"[2]; @ 100 nM, ranges",5 to 20%
COCc1nnc2n1Cc1c(C#Cc3ccc(OC)cc3)ncn1-c1ccc(Cl)cc1-2 [Compound 526],Ki,[1]; [3],< 100 nM
same,activation at 0.1 µM,"[2]; @ 100 nM, ranges",5 to 20%
COCc1nnc2n1Cc1c(C#Cc3ccc(OC)nc3)ncn1-c1ccc(Cl)cc1-2 [Compound 527],Ki,[1]; [3],< 100 nM
same,activation at 0.1 µM,"[2]; @ 100 nM, ranges",20 to 50%
